Data from the supplement of paper PMC10307832.

Experiments:
Experiment in all cases: relative viability (nuclei count vs DMSO), 5 days (fraction); higher = more cells survive
[1] = tested on: HCC-78
Summary of the method: (§1)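 Lung cancer cell lines, seeded in 1536-well plates, were treated the following day by pin tool with a single drug or with five library-drug doses (not always all listed) in √10 steps on top of a fixed anchor-drug dose. Cells were fixed and nuclei stained in one step after 5 days, and nuclei were counted. Relative viability is the nuclei count for treated wells divided by that for vehicle wells, reported as medians of duplicate plates.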

[2] = tested on: NCI-H647
Summary of the method: as §1

[3] = tested on: ChaGo-K-1
Summary of the method: as §1

[4] = tested on: HCC-827
Summary of the method: as §1

[5] = tested on: EPLC-272H
Summary of the method: as §1

[6] = tested on: NCI-H2405
Summary of the method: as §1

[7] = tested on: NCI-H2087
Summary of the method: as §1

[8] = tested on: NCI-H322M
Summary of the method: as §1

[9] = tested on: NCI-H520
Summary of the method: as §1

[10] = tested on: NCI-H1666
Summary of the method: as §1

[11] = tested on: NCI-H2347
Summary of the method: as §1

[12] = tested on: RERF-LC-KJ
Summary of the method: as §1

[13] = tested on: NCI-H1915
Summary of the method: as §1

[14] = tested on: NCI-H23
Summary of the method: as §1

[15] = tested on: LC-2-ad
Summary of the method: as §1

[16] = tested on: NCI-H650
Summary of the method: as §1

[17] = tested on: NCI-H2126
Summary of the method: as §1

[18] = tested on: LCLC-97TM1
Summary of the method: as §1

[19] = tested on: COR-L 105
Summary of the method: as §1

[20] = tested on: H3255
Summary of the method: as §1

[21] = tested on: PC-14
Summary of the method: as §1

[22] = tested on: 201T
Summary of the method: as §1

[23] = tested on: NCI-H661
Summary of the method: as §1

C[C@@H]1CN(CC(=O)Nc2ccc3c(c2)Cc2cccc(-c4cc(=O)cc(N5CCOCC5)o4)c2S3)C[C@H](C)O1 + COc1cc2c(Oc3ccc(NC(=O)C4(C(=O)Nc5ccc(F)cc5)CC4)cc3F)ccnc2cc1OCCCN1CCOCC1 [Foretinib] (partner 0.25 µM)
relative viability ([1]; first compound 0.04 µM): 0.554
relative viability ([1]; first compound 0.1265 µM): 0.579
relative viability ([1]; first compound 0.4 µM): 0.513
relative viability ([1]; first compound 4 µM): 0.468
relative viability ([2]; first compound 0.04 µM): 1.34
relative viability ([2]; first compound 0.1265 µM): 1.17
relative viability ([2]; first compound 0.4 µM): 1.2
relative viability ([2]; first compound 4 µM): 0.793
relative viability ([3]; first compound 0.04 µM): 0.793
relative viability ([3]; first compound 0.1265 µM): 0.929
relative viability ([3]; first compound 0.4 µM): 0.892
relative viability ([3]; first compound 4 µM): 0.825
relative viability ([4]; first compound 0.04 µM): 1.08
relative viability ([4]; first compound 0.1265 µM): 1
relative viability ([4]; first compound 0.4 µM): 1.08
relative viability ([4]; first compound 4 µM): 0.939
relative viability ([5]; first compound 0.04 µM): 0.643
relative viability ([5]; first compound 0.1265 µM): 0.817
relative viability ([5]; first compound 0.4 µM): 0.761
relative viability ([5]; first compound 4 µM): 0.674
relative viability ([6]; first compound 0.04 µM): 1.02
relative viability ([6]; first compound 0.1265 µM): 1.08
relative viability ([6]; first compound 0.4 µM): 1.03
relative viability ([6]; first compound 4 µM): 1.03
relative viability ([7]; first compound 0.04 µM): 1.15
relative viability ([7]; first compound 0.1265 µM): 0.954
relative viability ([7]; first compound 0.4 µM): 1.05
relative viability ([7]; first compound 4 µM): 0.801
relative viability ([8]; first compound 0.04 µM): 0.508
relative viability ([8]; first compound 0.1265 µM): 0.965
relative viability ([8]; first compound 0.4 µM): 0.979
relative viability ([8]; first compound 4 µM): 0.874
relative viability ([9]; first compound 0.04 µM): 0.86
relative viability ([9]; first compound 0.1265 µM): 0.88
relative viability ([9]; first compound 0.4 µM): 0.527
relative viability ([9]; first compound 4 µM): 0.613
relative viability ([10]; first compound 0.04 µM): 0.952
relative viability ([10]; first compound 0.1265 µM): 0.989
relative viability ([10]; first compound 0.4 µM): 1.05
relative viability ([10]; first compound 4 µM): 0.812
relative viability ([11]; first compound 0.04 µM): 0.758
relative viability ([11]; first compound 0.1265 µM): 0.761
relative viability ([11]; first compound 0.4 µM): 1.04
relative viability ([11]; first compound 4 µM): 1.2
relative viability ([12]; first compound 0.04 µM): 0.826
relative viability ([12]; first compound 0.1265 µM): 0.88
relative viability ([12]; first compound 0.4 µM): 0.827
relative viability ([12]; first compound 4 µM): 0.871
relative viability ([13]; first compound 0.04 µM): 1.06
relative viability ([13]; first compound 0.1265 µM): 1.13
relative viability ([13]; first compound 0.4 µM): 1.03
relative viability ([13]; first compound 4 µM): 1.05
relative viability ([14]; first compound 0.04 µM): 0.95
relative viability ([14]; first compound 0.1265 µM): 0.85
relative viability ([14]; first compound 0.4 µM): 0.945
relative viability ([14]; first compound 4 µM): 0.844
relative viability ([15]; first compound 0.04 µM): 0.863
relative viability ([15]; first compound 0.1265 µM): 0.921
relative viability ([15]; first compound 0.4 µM): 0.913
relative viability ([15]; first compound 4 µM): 0.874
relative viability ([16]; first compound 0.04 µM): 0.993
relative viability ([16]; first compound 0.1265 µM): 0.977
relative viability ([16]; first compound 0.4 µM): 1.03
relative viability ([16]; first compound 4 µM): 0.875
relative viability ([17]; first compound 0.04 µM): 1.17
relative viability ([17]; first compound 0.1265 µM): 1.12
relative viability ([17]; first compound 0.4 µM): 1.12
relative viability ([17]; first compound 4 µM): 1.02
relative viability ([18]; first compound 0.04 µM): 0.902
relative viability ([18]; first compound 0.1265 µM): 0.862
relative viability ([18]; first compound 0.4 µM): 0.959
relative viability ([18]; first compound 4 µM): 0.969
relative viability ([19]; first compound 0.04 µM): 1.39
relative viability ([19]; first compound 0.1265 µM): 0.971
relative viability ([19]; first compound 0.4 µM): 1.17
relative viability ([19]; first compound 4 µM): 0.701
relative viability ([20]; first compound 0.04 µM): 1.02
relative viability ([20]; first compound 0.1265 µM): 0.837
relative viability ([20]; first compound 0.4 µM): 0.677
relative viability ([20]; first compound 4 µM): 0.783
relative viability ([21]; first compound 0.04 µM): 0.94
relative viability ([21]; first compound 0.1265 µM): 0.864
relative viability ([21]; first compound 0.4 µM): 0.968
relative viability ([21]; first compound 4 µM): 0.902
relative viability ([22]; first compound 0.04 µM): 0.93
relative viability ([22]; first compound 0.1265 µM): 1.06
relative viability ([22]; first compound 4 µM): 0.936
relative viability ([23]; first compound 0.04 µM): 0.776
relative viability ([23]; first compound 0.1265 µM): 1.04
relative viability ([23]; first compound 0.4 µM): 0.953
relative viability ([23]; first compound 4 µM): 0.927
